Test results published in patent US10765662B2, “Mono- or di-substituted indole derivatives as dengue viral replication inhibitors” (Janssen Pharmaceuticals, Inc., priority 2015, dated 2020).

Columns and labels:
in vitro [1] = type: cell-based; details: African green monkey, CC50
Experimental: (§1) In parallel, the toxicity of the compounds was assessed on the same plates. Once the read-out for the eGFP signal was done, 40 μL of ATPlite, a cell viability stain, was added to all wells of the 384-well plates. ATP is present in all metabolically active cells and the concentration declines very rapidly when the cells undergo necrosis or apoptosis. The ATPLite assay system is based on the production of light caused by the reaction of ATP with added luciferase and D-luciferin. The plates were incubated for 10 minutes at room temperature. Next, the plates were measured on a ViewLux. The half maximal cytotoxic concentration (CC50) was also determined, defined as the concentration required to reduce the luminescent signal by 50% compared to that of the cell control wells. Finally, the selectivity index (SI) was determined for the compounds, which was calculated as followed: SI=CC50/EC50.

[2] = tested on: DENV-2 16681 strain labeled with enhanced green fluorescent protein; assay: DENV-2 antiviral assay (eGFP fluorescence read-out in Vero cells); type: cell-based, Dengue virus; details: DENV-2 16681 eGFP, MOI 0.5, 3 days
Experimental: The antiviral activity of all the compounds of the invention was tested against the DENV-2 16681 strain which was labeled with enhanced green fluorescent protein (eGPF). The culture medium consists of minimal essential medium supplemented with 2% of heat-inactivated fetal calf serum, 0.04% gentamycin (50 mg/mL) and 2 mM of L-glutamine. Vero cells, obtained from ECACC, were suspended in culture medium and 25 μL was added to 384-well plates (2500 cells/well), which already contain the antiviral compounds. Typically, these plates contain a 5-fold serial dilution of 9 dilution steps of the test compound at 200 times the final concentration in 100% DMSO (200 nL). […] Finally, each plate contains wells which are assigned as virus controls (containing cells and virus in the absence of compound), cell controls (containing cells in the absence of virus and compound) and medium controls (containing medium in the absence of cells, virus and compounds). To the wells assigned as medium control, 25 μL of culture medium was added instead of Vero cells. Once the cells were added to the plates, the plates were incubated for 30 minutes at room temperature to allow the cells to distribute evenly within the wells. Next, the plates were incubated in a fully humidified incubator (37° C., 5% CO2) until the next day. Then, DENV-2 strain 16681, labeled with eGFP, was added at a multiplicity of infection (MOI) of 0.5. Therefore, 15 μL of virus suspension was added to all the wells containing test compound and to the wells assigned as virus control. In parallel, 15 μL of culture medium was added to the medium and cell controls. Next, the plates were incubated for 3 days in a fully humidified incubator (37° C., 5% CO2). At the day of the read out, the eGFP fluorescence was measured using an automated fluorescence microscope at 488 nm (blue laser). Using an in-house LIMS system, inhibition dose response curves for each compound were calculated and the half maximal effective concentration (EC50) was determined. Therefore, the percent inhibition (I) for every test concentration is calculated using the following formula: I=100*([…])/(SVC−SCC); ST, SCC and SVC are the amount of eGFP signal in the test compound, cell control and virus control wells, respectively. The EC50 represents the concentration of a compound at which the virus replication is inhibited with 50%, as measured by a 50% reduction of the eGFP fluorescent intensity compared to the virus control. The EC50 is calculated using linear interpolation (Table 1).

Vero cells = assay: in vitro; type: cell-based; details: African green monkey
Experimental: as §1

DENV-1 strain TC974#666 = assay: Tetravalent RT-qPCR assay Protocol A, serotype 1; type: cell-based; details: Dengue virus, DENV1, 72 h; RT-qPCR serotype 1 TC974#666, Vero cells, day 3
Experimental: (§2) The antiviral activity of the compounds of the invention was tested against DENV-1 strain TC974#666 (NCPV), DENV-2 strain 16681, DENV-3 strain H87 (NCPV) and DENV-4 strains H241 (NCPV) and EDEN (SG/06K2270DK1/2005; GenBank accession number QG398256) in a RT-qPCR assay. Therefore, Vero cells were infected with either DENV-1, or -2, or -3, or -4 in the presence or absence of test compounds. At day 3 post-infection, the cells were lysed and cell lysates were used to prepare cDNA of both a viral target (the 3′UTR of DENV; Table 2) and a cellular reference gene (β-actin, Table 2). Subsequently, a duplex real time PCR was performed on a Lightcycler480 instrument. The generated Cp value is inversely proportional to the amount of RNA expression of these targets. Inhibition of DENV replication by a test compound results in a shift of Cp's for the 3′UTR gene. On the other hand, if a test compound is toxic to the cells, a similar effect on β-actin expression will be observed. The comparative ΔΔCp method is used to calculate EC50, which is based on the relative gene expression of the target gene (3′UTR) normalized with the cellular housekeeping gene (β-actin). In addition, CC50 values are determined based on the Cp values acquired for the housekeeping gene β-actin.
(§3) The culture medium consisted of minimal essential medium supplemented with 2% of heat-inactivated fetal calf serum, 0.04% gentamycin (50 mg/mL) and 2 mM of L-glutamine. Vero cells, obtained from ECACC, were suspended in culture medium and 75 μL/well was added in 96-well plates (10000 cells/well), which already contain the antiviral compounds. […] In addition, each plate contains wells which are assigned as virus controls (containing cells and virus in the absence of compound) and cell controls (containing cells in the absence of virus and compound). Once the cells were added in the plates, the plates were incubated in a fully humidified incubator (37° C., 5% CO2) until the next day. Dengue viruses serotype-1, 2, 3 and 4 were diluted in order to obtain a Cp of ˜22-24 in the assay. Therefore, 25 μL of virus suspension, was added to all the wells containing test compound and to the wells assigned as virus control. In parallel, 25 μL of culture medium was added to the cell controls. Next, the plates were incubated for 3 days in a fully humidified incubator (37° C., 5% CO2). After 3 days, the supernatant was removed from the wells and the cells were washed twice with ice-cold PBS (˜100 μL). The cell pellets within the 96-well plates were stored at −80° C. for at least 1 day. Next, RNA was extracted using the Cells-to-CT™ lysis kit, according to the manufacturer's guideline (Life Technologies). The cell lysates can be stored at −80° C. or immediately used in the reverse transcription step.
(§4) In preparation of the reverse transcription step, mix A (table 3A) was prepared and 7.57 μL/well was dispensed in a 96-well plate. After addition of 5 μL of the cell lysates, a five minute denaturation step at 75° C. was performed (table 3B). Afterwards, 7.43 μL of mix B was added (table 3C) and the reverse transcription step was initiated (table 3D) to generate cDNA.
(§5) Finally, a RT-qPCR mix was prepared, mix C (table 4A), and 22.02 μL/well was dispensed in 96-well LightCycler qPCR plates to which 3 μL of cDNA was added and the qPCR was performed according to the conditions in table 4B on a LightCycler 480.
(§6) Using the LightCycler software and an in-house LIMS system, dose response curves for each compound were calculated and the half maximal effective concentration (EC50) and the half maximal cytotoxic concentration (CC50) were determined (Tables 5-8).

in vitro [3] = type: cell-based; details: African green monkey
Experimental: as §2, §3, §6

DENV-3 strain H87 = assay: Tetravalent RT-qPCR assay Protocol A, serotype 3; type: cell-based; details: Dengue virus, DENV3, 72 h; RT-qPCR serotype 3 H87, Vero cells, day 3
Experimental: as §2, §3, §4, §5, §6

DENV-2 strain 16681 = assay: Tetravalent RT-qPCR assay Protocol A, serotype 2; type: cell-based; details: Dengue virus, DENV2, 72 h; RT-qPCR serotype 2 16681, Vero cells, day 3
Experimental: as §2, §3, §4, §5, §6

DENV-4 strain H241 = assay: Tetravalent RT-qPCR assay Protocol A, serotype 4 H241; type: cell-based; details: Dengue virus, DENV4, Vero, 72 h
Experimental: as §2, §3, §4, §5, §6

[4] = Dengue virus, DENV2, Vero, 72 h

Compound | CC50 (in vitro [1]) [nM] | EC50 [2, 4] [nM] | melting point [°C] | CC50 (Vero cells) [nM] | EC50 (DENV-1 strain TC974#666) [nM] | CC50 at 3 days (in vitro [3]) [nM] | EC50 (DENV-3 strain H87) [nM] | EC50 (DENV-2 strain 16681) [nM] | EC50 [2] [nM] | EC50 (DENV-4 strain H241) [nM]
COc1cc(NC(C(=O)c2c[nH]c3cc(OC)ccc23)c2ccc(Cl)cc2OCCO)cc(S(C)(=O)=O)c1 (racemic) [Compound 3, 2-(4-chloro-2-(2-hydroxyethoxy)phenyl)-1-(6-methoxy-1H-indol-3-yl)-2-((3-methoxy-5-(methylsulfonyl)phenyl)amino)ethanone] | 12000 | 0.54 | 149 |  |  |  |  |  |  | 
COc1cc(NC(C(=O)c2c[nH]c3cc(OC)c(OC(F)(F)F)cc23)c2ccc(Cl)cc2OCCO)cc(S(C)(=O)=O)c1 (single isomer, unassigned) [Compound 11B, 2-(4-chloro-2-(2-hydroxyethoxy)phenyl)-2-((3-methoxy-5-(methylsulfonyl)phenyl)amino)-1-(6-methoxy-5-(trifluoromethoxy)-1H-indol-3-yl)ethanone] |  |  |  | > 2300 | 0.12 | > 2500 | 1.3 | 0.062 | 0.089 | 11
COc1cc(NC(C(=O)c2c[nH]c3cc(F)ccc23)c2ccc(Cl)cc2OCCO)cc(S(C)(=O)=O)c1 (single isomer, unassigned) [Compound 1A, 2-(4-chloro-2-(2-hydroxyethoxy)phenyl)-1-(6-fluoro-1H-indol-3-yl)-2-((3-methoxy-5-(methylsulfonyl)phenyl)amino)ethanone] |  |  |  | 3700 | 1.3 | > 2500 | 9.6 | 0.24 | 0.24 | 71
COc1cc(NC(C(=O)c2c[nH]c3c(C)cc(OC(F)(F)F)cc23)c2ccc(Cl)cc2OCCO)cc(S(C)(=O)=O)c1 (single isomer, unassigned) [Compound 12B, 2-(4-chloro-2-(2-hydroxyethoxy)phenyl)-2-((3-methoxy-5-(methylsulfonyl)phenyl)amino)-1-(7-methyl-5-(trifluoromethoxy)-1H-indol-3-yl)ethanone] |  |  |  |  | 0.086 | > 2300 | 1.1 | 0.053 | 0.034 | 5.5
COc1cc(NC(C(=O)c2c[nH]c3cc(Cl)ccc23)c2ccc(Cl)cc2OCCO)cc(S(C)(=O)=O)c1 (racemic) [Compound 2, 1-(6-chloro-1H-indol-3-yl)-2-(4-chloro-2-(2-hydroxyethoxy)phenyl)-2-((3-methoxy-5-(methylsulfonyl)phenyl)amino)ethanone] | 4200 | 0.27 | 121 |  |  |  |  |  |  | 
COc1cc(NC(C(=O)c2c[nH]c3cc(OC)c(OC(F)(F)F)cc23)c2ccc(Cl)cc2OCCO)cc(S(C)(=O)=O)c1 (racemic) [Compound 11, 2-(4-chloro-2-(2-hydroxyethoxy)phenyl)-2-((3-methoxy-5-(methylsulfonyl)phenyl)amino)-1-(6-methoxy-5-(trifluoromethoxy)-1H-indol-3-yl)ethanone] | > 2500 | 0.2 | 212 |  |  |  |  |  |  | 
COc1cc(NC(C(=O)c2c[nH]c3ccc(C(F)(F)F)cc23)c2ccc(Cl)cc2OCCO)cc(S(C)(=O)=O)c1 (single isomer, unassigned) [Compound 9B, 2-(4-chloro-2-(2-hydroxyethoxy)phenyl)-2-((3-methoxy-5-(methylsulfonyl)phenyl)amino)-1-(5-(trifluoromethyl)-1H-indol-3-yl)ethanone] |  |  |  | > 2400 | 0.083 | 2900 | 1.2 | 0.054 | 0.061 | 8.1
COc1cc(NC(C(=O)c2c[nH]c3cc(F)c(C)cc23)c2ccc(Cl)cc2OCCO)cc(S(C)(=O)=O)c1 (single isomer, unassigned) [Compound 8A, 2-(4-chloro-2-(2-hydroxyethoxy)phenyl)-1-(6-fluoro-5-methyl-1H-indol-3-yl)-2-((3-methoxy-5-(methylsulfonyl)phenyl)amino)ethanone] | > 2500 |  |  |  | 0.39 |  | 4.2 | 0.27 | 0.11 | 36
COc1cc(NC(C(=O)c2c[nH]c3ccc(OC(F)(F)F)cc23)c2ccc(Cl)cc2OCCO)cc(S(C)(=O)=O)c1 (single isomer, unassigned) [Compound 10B, 2-(4-chloro-2-(2-hydroxyethoxy)phenyl)-2-((3-methoxy-5-(methylsulfonyl)phenyl)amino)-1-(5-(trifluoromethoxy)-1H-indol-3-yl)ethanone] |  |  |  | 2400 | 0.071 | > 2400 | 1.4 | 0.049 | 0.067 | 6.9
